Tests used:
Assay in all cases: relative viability (nuclei count vs DMSO), 5 days (fraction); higher = more cells survive
Erlotinib + AZD7762 = compound: C#Cc1cccc(Nc2ncnc3cc(OCCOC)c(OCCOC)cc23)c1 [Erlotinib] + NC(=O)Nc1cc(-c2cccc(F)c2)sc1C(=O)N[C@H]1CCCNC1 [AZD7762] (partner 0.2 µM)
How it was run: (§1)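 Lung cancer cell lines, seeded in 1536-well plates, were treated the following day by pin tool with a single drug or with five library-drug doses (not always all listed) in √10 steps on top of a fixed anchor-drug dose. Cells were fixed and nuclei stained in one step after 5 days, and nuclei were counted. Relative viability is the nuclei count for treated wells divided by that for vehicle wells, reported as medians of duplicate plates.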

Erlotinib + Trametinib = compound: C#Cc1cccc(Nc2ncnc3cc(OCCOC)c(OCCOC)cc23)c1 [Erlotinib] + CC(=O)Nc1cccc(-n2c(=O)n(C3CC3)c(=O)c3c(Nc4ccc(I)cc4F)n(C)c(=O)c(C)c32)c1 [Trametinib] (partner 0.02 µM)
How it was run: as §1

AT9283 + Lapatinib = compound: O=C(Nc1c[nH]nc1-c1nc2ccc(CN3CCOCC3)cc2[nH]1)NC1CC1 [AT9283] + CS(=O)(=O)CCNCc1ccc(-c2ccc3ncnc(Nc4ccc(OCc5cccc(F)c5)c(Cl)c4)c3c2)o1 [Lapatinib] (partner 2 µM)
How it was run: as §1

AT9283 + Decitabine = compound: O=C(Nc1c[nH]nc1-c1nc2ccc(CN3CCOCC3)cc2[nH]1)NC1CC1 [AT9283] + Nc1ncn([C@H]2C[C@H](O)[C@@H](CO)O2)c(=O)n1 [Decitabine] (partner 2 µM)
How it was run: as §1

Erlotinib + Olaparib = compound: C#Cc1cccc(Nc2ncnc3cc(OCCOC)c(OCCOC)cc23)c1 [Erlotinib] + O=C(c1cc(Cc2n[nH]c(=O)c3ccccc23)ccc1F)N1CCN(C(=O)C2CC2)CC1 [Olaparib] (partner 8 µM)
How it was run: as §1

Cell Line	relative viability (Erlotinib + AZD7762; first compound 0.02 µM)	relative viability (Erlotinib + AZD7762; first compound 0.2 µM)	relative viability (Erlotinib + AZD7762; first compound 0.6325 µM)	relative viability (Erlotinib + Trametinib; first compound 0.02 µM)	relative viability (Erlotinib + Trametinib; first compound 0.2 µM)	relative viability (Erlotinib + Trametinib; first compound 0.6325 µM)	relative viability (Erlotinib + Trametinib; first compound 2 µM)	relative viability (AT9283 + Lapatinib; first compound 0.003 µM)	relative viability (AT9283 + Lapatinib; first compound 0.03 µM)	relative viability (AT9283 + Lapatinib; first compound 0.09487 µM)	relative viability (AT9283 + Lapatinib; first compound 0.3 µM)	relative viability (AT9283 + Decitabine; first compound 0.003 µM)	relative viability (AT9283 + Decitabine; first compound 0.03 µM)	relative viability (AT9283 + Decitabine; first compound 0.09487 µM)	relative viability (AT9283 + Decitabine; first compound 0.3 µM)	relative viability (Erlotinib + Olaparib; first compound 0.02 µM)	relative viability (Erlotinib + Olaparib; first compound 0.2 µM)	relative viability (Erlotinib + Olaparib; first compound 0.6325 µM)	relative viability (Erlotinib + Olaparib; first compound 2 µM)	relative viability (Erlotinib + AZD7762; first compound 2 µM)
HOP-62	0.702	0.638	0.541	0.35	0.364	0.452	0.36	1.06	0.984	0.47	0.176	0.212	0.217	0.152	0.165	0.446	0.307	0.508	0.415	–
LC-2-ad	0.843	0.508	0.514	0.902	0.907	0.87	0.775	0.938	0.0948	0.0976	0.0947	0.872	0.685	0.471	0.255	0.709	0.785	0.692	0.625	0.389
LCLC-97TM1	0.291	0.309	0.356	0.197	0.197	0.163	0.168	0.746	0.15	0.129	0.126	0.199	0.175	0.104	0.089	0.45	0.352	0.508	0.321	0.196
LK-2	0.376	0.366	0.438	0.867	0.543	0.842	0.586	0.788	0.26	0.198	0.181	0.215	0.116	0.113	0.0972	0.914	0.706	0.804	0.611	0.268
LOU-NH91	0.682	0.692	0.769	0.759	0.57	0.739	0.644	0.688	0.646	0.566	0.419	0.83	0.77	0.522	0.509	0.733	0.619	0.725	0.624	0.684
LU99A	0.414	0.414	0.295	0.705	0.583	0.643	0.484	0.846	0.357	0.188	0.207	0.868	0.404	0.195	0.226	0.309	0.29	0.252	0.208	0.418
LXF-289	1.13	1.07	1.05	0.639	0.672	0.647	0.684	0.901	0.691	0.163	0.135	0.354	0.423	0.214	0.139	1.15	1.12	1.12	1.04	1.03
NCI-H23	0.291	0.177	0.198	0.36	0.349	0.385	0.306	0.968	0.395	0.225	0.207	0.26	0.293	0.228	0.246	0.388	0.261	0.289	0.294	0.219
NCI-H322M	0.464	0.481	0.371	0.472	0.461	0.462	0.445	0.548	0.272	0.32	0.335	0.775	0.531	0.588	0.462	0.776	0.67	0.631	0.551	0.395
NCI-H358	0.537	0.361	0.429	0.143	0.114	0.12	0.105	0.413	0.192	0.176	0.16	0.219	0.143	0.102	0.0856	0.583	0.599	0.403	0.199	0.201
NCI-H460	0.613	0.734	0.631	0.104	0.129	0.131	0.0721	1.05	0.0247	0.0158	0.0301	0.434	0.466	0.24	0.078	0.453	0.345	0.425	0.363	0.629
NCI-H596	1.04	0.954	1.05	0.745	0.75	0.886	0.751	0.845	0.884	0.623	0.404	1.07	0.946	0.934	0.783	0.776	0.635	0.674	0.586	0.87
NCI-H647	0.465	0.439	0.508	0.653	0.367	0.556	0.422	1.06	0.124	0.123	0.0895	0.427	0.401	0.205	0.127	0.556	0.541	0.594	0.243	0.431
NCI-H650	0.953	1.19	1.23	0.964	0.985	0.919	0.963	0.832	0.842	0.252	0.199	0.319	0.333	0.229	0.162	0.419	0.389	–	0.34	1.28
NCI-H727	0.455	0.488	0.437	0.392	0.387	0.351	0.379	0.847	0.435	0.28	0.249	0.697	0.642	0.754	0.517	0.696	0.947	0.607	0.721	0.463
NCI-H838	0.895	0.784	0.987	0.587	0.431	0.586	0.509	0.98	0.225	0.18	0.182	0.436	0.293	0.265	0.226	0.823	0.766	0.859	0.726	0.896

Cell Line	relative viability (Erlotinib + AZD7762; first compound 0.02 µM)	relative viability (Erlotinib + AZD7762; first compound 0.2 µM)	relative viability (Erlotinib + AZD7762; first compound 0.6325 µM)	relative viability (Erlotinib + Trametinib; first compound 0.02 µM)	relative viability (Erlotinib + Trametinib; first compound 0.2 µM)	relative viability (Erlotinib + Trametinib; first compound 0.6325 µM)	relative viability (Erlotinib + Trametinib; first compound 2 µM)	relative viability (AT9283 + Lapatinib; first compound 0.003 µM)	relative viability (AT9283 + Lapatinib; first compound 0.03 µM)	relative viability (AT9283 + Lapatinib; first compound 0.09487 µM)	relative viability (AT9283 + Lapatinib; first compound 0.3 µM)	relative viability (AT9283 + Decitabine; first compound 0.003 µM)	relative viability (AT9283 + Decitabine; first compound 0.03 µM)	relative viability (AT9283 + Decitabine; first compound 0.09487 µM)	relative viability (AT9283 + Decitabine; first compound 0.3 µM)	relative viability (Erlotinib + Olaparib; first compound 0.02 µM)	relative viability (Erlotinib + Olaparib; first compound 0.2 µM)	relative viability (Erlotinib + Olaparib; first compound 0.6325 µM)	relative viability (Erlotinib + Olaparib; first compound 2 µM)	relative viability (Erlotinib + AZD7762; first compound 2 µM)
NCI-H1355	0.794	0.687	0.674	0.424	0.332	0.326	0.302	1.01	0.911	0.845	0.168	0.341	0.357	0.322	0.195	0.796	0.709	0.684	0.558	0.682
NCI-H1395	0.421	0.367	0.338	1.1	0.993	1.02	0.989	0.904	0.703	0.412	0.427	0.819	0.604	0.42	0.385	0.465	0.43	0.426	0.432	0.407
NCI-H1437	1.01	–	–	0.534	0.322	0.373	0.371	0.702	0.246	0.157	0.155	0.47	0.599	0.426	0.306	0.638	0.646	0.607	0.612	0.956
NCI-H1651	0.365	0.428	0.406	0.881	0.814	0.877	0.84	0.83	0.481	0.215	0.279	0.371	0.516	0.428	0.318	0.171	0.188	0.173	0.145	0.304
NCI-H1666	0.72	0.834	0.732	0.904	0.736	0.78	0.709	0.634	0.386	0.243	0.321	0.6	0.589	0.669	0.534	0.787	0.793	0.676	0.645	0.633
NCI-H1734	0.579	0.513	0.607	0.74	0.718	0.619	0.634	0.988	0.687	0.291	0.249	0.54	0.324	0.261	0.254	0.61	0.588	0.583	0.545	0.507
NCI-H1755	0.487	0.438	0.499	0.793	0.774	0.816	0.737	1.08	0.775	0.357	0.399	0.712	0.803	0.67	0.527	0.942	0.892	0.888	0.818	0.379
NCI-H1792	0.904	0.465	0.6	0.435	0.423	0.47	0.446	0.797	0.713	0.151	0.108	0.499	0.56	0.567	0.345	0.407	0.299	0.464	0.383	0.469
NCI-H1793	0.683	0.31	0.438	0.472	0.411	0.411	0.334	0.743	0.273	0.16	0.256	0.498	0.469	0.283	0.266	0.819	0.391	0.686	0.436	0.258
NCI-H1915	0.72	0.675	–	0.304	0.308	0.329	0.285	0.885	0.931	0.477	0.217	0.247	0.26	0.209	0.168	0.25	0.264	0.25	0.222	0.659
NCI-H1944	0.541	0.419	0.538	0.385	0.326	0.361	0.295	0.731	0.598	0.271	0.204	0.415	0.388	0.212	0.267	0.396	0.311	0.382	0.304	0.387
NCI-H1975	0.704	0.682	0.605	0.368	0.32	0.404	0.348	0.891	0.225	0.208	0.196	0.403	0.432	0.398	0.34	0.818	0.712	0.888	0.695	0.495
NCI-H1993	0.732	0.555	0.566	0.597	0.491	0.497	0.465	0.813	0.672	0.631	0.632	0.596	0.453	0.442	0.456	0.91	0.606	0.748	0.658	0.535
NCI-H2085	0.92	–	0.732	0.494	0.496	0.513	0.306	0.798	0.36	0.297	0.382	0.615	0.452	0.419	0.378	0.754	0.768	0.655	0.619	0.454
NCI-H2087	1.4	1.33	1.29	0.219	0.185	0.19	0.138	0.894	0.269	0.222	0.186	0.238	0.214	0.182	0.0988	0.622	0.576	0.576	0.469	1.17

Source: the supplement of paper PMC10307832
